“Also recorded” adds a separate entry of the source.
How the values were obtained:
colonic immune response = assay: Colonic immune response in AOM-DSS mice (infiltration score, gene expression, IF); assay type: in vivo, C57BL/6 mice
Text: The present inventors used the tissues generated for FIG. 5 to study immune cell responses in AOM-DSS-treated mice±EtHOBA.
Using the tissues from the same mice as in FIG. 5, the present inventors analyzed the expression of key genes encoding mediators of the innate and adaptive immune response. […] Importantly, the overall pattern was that the genes encoding antitumoral effectors were expressed at a higher level in mice that were given compounds of the present invention. […] In contrast, the gene encoding the immunosuppressive myeloid mediator AR G1 was not affected by EtHOBA (FIG. 9). Using IF, we confirmed that mice treated with AOM-DSS mice that were given EtHOBA had increased CD68^+NOS2^+ (M1 macrophages) in colon tumors (FIG. 10).

[1] = tested on: Mongolian gerbils infected with Hp 7.13; assay: Gastric cancer development in Mongolian gerbils infected with Hp 7.13; assay type: in vivo; conditions: gerbils infected with Hp 7.13, EtSA 0.75% in water
Procedure: (§1) As discussed further in the Examples, the human gastric epithelial cell line AGS was infected with Hp PMSS1±10 mM EtSA. FVB/N insulin-gastrin (INS-GAS) mice and Mongolian gerbils were infected for 8 wk with Hp PMSS1 and 7.13, respectively; EtSA (0.75% in water) was given to animals beginning one wk post-infection. Lys-LG adducts, a marker of electrophile reactions, and EtSA were quantified by LC/EST/MS/MS. Histology was analyzed on H&E staining. DNA damage was evaluated by pH2AX staining. Hp colonization was quantified by culture. Mucosal immune responses were determined by RNA profiling and by Luminex assay. Mice were imaged using PET/CT with ^18F-FDG (inflammation marker) and ^18F—NaF (tumor marker).

mucosal immune responses = assay: Gastritis and mucosal cytokines/chemokines in infected INS-GAS mice; assay type: in vivo; conditions: EtSA
Procedure: as §1

[2] = tested on: INS-GAS mice infected with H. pylori; assay: H. pylori-induced gastric dysplasia and carcinoma in INS-GAS mice; assay type: in vivo
Procedure: FIGS. 16A, 16B, 16C, 16D, 16E, and 16F show INS-GAS mice (8 per group) were infected or not with H. pylori strain PMS for 8 weeks and then treated with EtSA (7.5 mg/ml) one week after infection. (A) EtSA concentration in gastric tissues; **P<0.01, ****P<0.0001 vs. mice without EtSA. (B) Frequency of diagnoses. IMC, intramucosal carcinoma; LGD, low grade dysplasia; ND, no dysplasia. (C) Quantification of extent of dysplasia and cancer as a percentage of tissue sections. (D) H&E staining of INS-GAS mouse stomach tissues, showing carcinoma in an infected mouse; scale bar, 50 μm. In B and C, *P<0.05, **P<0.01 vs. infected mice.
as §1
The effect of a scavenger of levuglandins and other dicarbonyls was investigated in transgenic INS-GAS mice, which have high circulating gastrin levels and develop atrophic gastritis, and dysplasia and carcinoma with H. pylori infection. Mice were infected with H. pylori, and then EtSA was administered in drinking water, starting 7 days after infection. After 8 weeks, EtSA levels were measured in the gastric tissues of uninfected and infected mice receiving this compound (FIG. 16A). […] There was no dysplasia or carcinoma in uninfected mice (FIG. 16D).

[3] = EtHOBA concentration in the colon by LC/ESI/MS/MS; assay type: in vivo; conditions: 1.5 and 3.7 mg/ml, after 6 days of treatment
Procedure: FIGS. 3A and 3B show data from C57BL/6 mice were treated or not with various concentrations of EtHOBA. (A) Body weight was assessed every day. (B) After 6 days, mice were euthanized and EtHOBA was measured in the colon. n=5 mice/group.
The present inventors analyzed the effect of various concentrations of EtHOBA and its bioavailability in control mice. […] After 6 days of treatment, EtHOBA concentrations in the colon were analyzed using liquid chromatography electrospray ionization tandem mass spectrometry (LC/EST/MS/MS).

[4] = H. pylori-infected INS-GAS mice treated with EtSA, 8 weeks, 37.5% without EtSA

Q: With CCc1ccc(O)c(CN)c1 [EtHOBA, 5-ethyl-2-hydroxybenzylamine] as the compound, how does the immune cell infiltration (colonic immune response; AOM-DSS mice, EtHOBA vs untreated) read?
A: Its immune cell infiltration is “more influx of immune cells”.

Q: And the “Arg1 (ARG1) expression” value (colonic immune response; AOM-DSS ± EtHOBA)?
A: The value was “not affected”.

Q: And the “CD68+NOS2+ (M1 macrophages) in colon tumors” value (colonic immune response; IF, AOM-DSS mice)?
A: The value was “increased”.

Q: What about the “histology in control mice” value (colonic immune response; control mice given EtHOBA) of the same compound?
A: Its value is “no effect on histology”.

Q: What about the Il12a expression (colonic immune response; non-tumor and tumor tissue, AOM-DSS ± EtHOBA) of the same compound?
A: Its Il12a expression is “reached statistical significance for an increase”.

Q: What about the Il17 expression (colonic immune response; non-tumor tissue, AOM-DSS ± EtHOBA) of the same compound?
A: The Il17 expression was “reached statistical significance for an increase”.

Q: And the Il12b expression (colonic immune response; tumor tissue, AOM-DSS ± EtHOBA)?
A: Its Il12b expression is “reached statistical significance for an increase”.

Q: And the Nos2 expression (colonic immune response; tumor tissue, AOM-DSS ± EtHOBA)?
A: Its Nos2 expression is “reached statistical significance for an increase”.

Q: What about the Tnfa expression (colonic immune response; tumor tissue, AOM-DSS ± EtHOBA) of the same compound?
A: The Tnfa expression was “reached statistical significance for an increase”.

Q: What about the “frequency of gastric cancer development” value [1] of the same compound?
A: The value was “reduced”.

Q: What about the histologic gastritis (mucosal immune responses) of the same compound?
A: Its histologic gastritis is “not affected”.

Q: And the “tissue cytokines and chemokines” value (mucosal immune responses)?
A: Its value is “not affected”.

Q: What about the development of carcinoma [2, 4] of the same compound?
A: The development of carcinoma was 0%.

Q: What about the development of dysplasia [2, 4] of the same compound?
A: Its development of dysplasia is 14.3%.

Q: And the “extent of dysplasia and carcinoma” value ([2]; Hp-infected INS-GAS mice treated with EtSA, percentage of gastric mucosa)?
A: Its value is “significantly attenuated; also recorded: decreases”.

Q: What about the “frequency of intramucosal carcinoma” value ([2]; Hp-infected INS-GAS mice treated with EtSA, 69% without EtSA, p<0.05) of the same compound?
A: Its value is 28%.

Q: And the “EtHOBA concentrations in the colon” value [3]?
A: Its value is “readily detected”.
